Measured values: US6979471B1, “Composition comprising pharmaceutical/nutraceutical agent and a bio-enhancer obtained from Glycyrrhiza glabra” (Council of Scientific and Industrial Research, priority 2000, dated 2005)

Tests used:
Type in all cases: cell-based
[1] = tested on: Candida albicans (ATCC 10231); assay: Disc diffusion assay, antifungal agent against Candida albicans
Procedure: (§1) • a) The minimum inhibitory concentration (MIC) of any antibiotic or drug molecule is determined against Escherichia coli (ATCC 10536), Bacillus subtilis (ATCC 6015) and Mycobacterium smegmatis (ATCC 14468) and Candida albicans (ATCC 10231) in broth and disc diffusion assays. • b) The antibiotics or antifungal agents at concentrations 1/10, ⅛, ⅙, ¼, ⅓, ½ and equal to MIC are added alone and in combination with the test compound at varying concentrations in broth assays to evaluate the comparative level of inhibition and similarly at varying concentrations in disc diffusion assay. • c) The combinations showing enhancement in terms of higher activity than antibiotic alone for the inhibition of bacterial growth (large inhibition zone in disc diffusion and higher killing at lower concentration in broth assay) are picked up for future testing. • d) In broth assays the activity is quantified by counting number of viable cells in a given treatment and converted in fold enhancement by the combination treatment compared to antibiotic/drug alone in the killing percentage of cells. • e) The pretreatment assay is followed to determine whether the bioenhancer which may be either an extract obtained from the plant Glycyrrhiza glabra, glycyrrhizin or glycyrrhizic acid, is required along with antibiotic to enhance its activity or even its withdrawal after treatment or prior to antibiotic treatment would benefit. […] Assay for Bio-Enhancement of Anti-Cancer Agents • a) MCF-7 (Breast cancer cell line is inoculated at a density of about 0.1×10^6 cells in MEM medium in the wells of 24 well plate. • b) The used up medium in these cultures is replaced with fresh medium after 18 hours in each well. • c) The test compound (s) is added at desired concentrations in different wells just after the medium replacement. • d) Observations are recorded on the cell count after 36 hours for which the following steps are required. • i. […] The number of viable cells is counted in 5 big squares and the reading is taken from 5 microscopic fields to determine the average. • viii. […]

[2] = tested on: Bacillus subtilis (ATCC 6015); assay: Broth assay for bio-enhancement of antibiotics: viable cell count, Bacillus subtilis
Procedure: (§2) In the next step of elucidation of the enhancer action the applicants experimented with the killing activities of different antibiotics against the bacteria singly and in combination with the test compound glycyrrhizin following the method described above. These experiments are to be considered with assay for bioenhancement of the compounds glycyrrhizin/glycyrrhizic acid and licorice, as described earlier. […] In all the experiments the glycyrrhizin concentration was kept at 1 μg/ml, unless it is specifically mentioned.

[3] = tested on: Escherichia coli (ATCC 10536); assay: Broth assay for bio-enhancement of antibiotics: viable cell count, Escherichia coli; details: Table 1; for *Folds enhancement in antibiotic activity (a/b): glycyrrhizin 1 μg/ml
[4] = tested on: Mycobacterium smegmatis (ATCC 14468); assay: Broth assay for bio-enhancement of antibiotics: viable cell count, Mycobacterium smegmatis; details: Table 3; for *Folds enhancement in antibiotic activity (a/b): glycyrrhizin 1 μg/ml
Procedure: (§3) For this, the cells are treated with the bioenhancer/compound for 4 to 8 hours and then washed free of it by centrifugation and washing in sterile water. […] 2. Assay for Bio-Enhancement of Anti-Cancer Agents • a) MCF-7 (Breast cancer cell line is inoculated at a density of about 0.1×10^6 cells in MEM medium in the wells of 24 well plate. • b) The used up medium in these cultures is replaced with fresh medium after 18 hours in each well. • c) The test compound (s) is added at desired concentrations in different wells just after the medium replacement. • d) Observations are recorded on the cell count after 36 hours for which the following steps are required. • i. The medium is removed from the wells. • ii. The wells are rinsed with 1 ml PBS (Phosphate buffer saline). • iii. To each well 500 μl of freshly prepared trypsin solution (0.1% in PBS) is added. • iv. Trypsin solution is removed after 30 seconds and the plate is gently tapped till the cells are released from the plate surface. • v. Fresh 1 ml of MEM growth medium is added and agitated with a pipette to obtain a cell suspension. • vi. 10 μl of cell suspension is taken on the haemocytometer and a cover glass is placed over the counting chamber. • vii. The number of viable cells is counted in 5 big squares and the reading is taken from 5 microscopic fields to determine the average. • viii. The cell count (titre per ml) in the original sample is then calculated as average count×10^3. Composition of Minimum Essential Medium (MEM): 100 ml
as §2

[5] = tested on: MCF-7 (Breast cancer cell line); assay: Assay for bio-enhancement of anti-cancer agents: viable cell count after 36 hours; details: for Final titre of viable cells upon treatment with taxol-glycyrrhizin combination / Final titre of viable cells upon treatment with taxol alone: initial titre 0.1 × 10^6, 36 hours
Procedure: as §3

Escherichia coli = assay: Disc diffusion assay against Escherichia coli; details: Escherichia coli; read-out: Net zone of inhibition
Procedure: as §1

Mycobacterium smegmatis = assay: Disc diffusion assay against Mycobacterium smegmatis; details: Mycolicibacterium smegmatis; read-out: Net zone of inhibition
Procedure: as §1

[6] = antibiotic 4 μg/ml + glycyrrhizin 1 μg/ml
[7] = antibiotic 8 μg/ml + glycyrrhizin 1 μg/ml

Clc1ccccc1C(c1ccccc1)(c1ccccc1)n1ccnc1 [Clotrimazole]
zone of inhibition at 4 µg/disc ([1]; Candida albicans, ATCC10231, clotrimazole 4 μg/disc alone, glycyrrhizin 0): 7 mm
Zone of inhibition ([1]; clotrimazole 4 μg/disc + glycyrrhizin 1 μg/disc): 11 mm

CN(C)[C@@H]1C(O)=C(C(N)=O)C(=O)[C@@]2(O)C(O)=C3C(=O)c4c(O)cccc4[C@@](C)(O)[C@H]3C[C@@H]12 [Tetracycline]
Survival fraction of viable cells upon treatment with antibiotic alone (a) ([2]; Table 2, antibiotic 1 μg/ml): 0.10
Survival fraction of viable cells upon treatment with antibiotic- glycyrrhizin combination (b) ([2]; Table 2, antibiotic 1 μg/ml + glycyrrhizin 1 μg/ml): 0.02
*Folds enhancement in antibiotic activity (a/b) ([2]; Table 2, antibiotic 1 μg/ml, glycyrrhizin 1 μg/ml): 5.00 folds
Survival fraction of viable cells upon treatment with antibiotic alone (a) ([3]; antibiotic 2 μg/ml): 0.42
Survival fraction of viable cells upon treatment with antibiotic- glycyrrhizin combination (b) ([3]; antibiotic 2 μg/ml + glycyrrhizin 1 μg/ml): 0.22
*Folds enhancement in antibiotic activity (a/b) ([3]; antibiotic 2 μg/ml): 1.9 folds
Survival fraction of viable cells upon treatment with antibiotic alone (a) ([3]; antibiotic 4 μg/ml): 0.27
Survival fraction of viable cells upon treatment with antibiotic- glycyrrhizin combination (b) [3, 6]: 0.03
*Folds enhancement in antibiotic activity (a/b) ([3]; antibiotic 4 μg/ml): 9.0 folds
Survival fraction of viable cells upon treatment with antibiotic alone (a) ([4]; antibiotic 0.5 μg/ml): 0.3
Survival fraction of viable cells upon treatment with antibiotic- glycyrrhizin combination (b) ([4]; antibiotic 0.5 μg/ml + glycyrrhizin 1 μg/ml): 0.2
*Folds enhancement in antibiotic activity (a/b) ([4]; antibiotic 0.5 μg/ml): 1.5 folds

CCn1cc(C(=O)O)c(=O)c2ccc(C)nc21 [Nalidixic acid]
Survival fraction of viable cells upon treatment with antibiotic alone (a) ([2]; Table 2, antibiotic 6 μg/ml): 0.50
Survival fraction of viable cells upon treatment with antibiotic- glycyrrhizin combination (b) ([2]; Table 2, antibiotic 6 μg/ml + glycyrrhizin 1 μg/ml): 0.11
*Folds enhancement in antibiotic activity (a/b) ([2]; Table 2, antibiotic 6 μg/ml, glycyrrhizin 1 μg/ml): 4.50 folds
Survival fraction of viable cells upon treatment with antibiotic alone (a) ([2]; Table 2, antibiotic 8 μg/ml): 0.27
Survival fraction of viable cells upon treatment with antibiotic- glycyrrhizin combination (b) ([2]; Table 2, antibiotic 8 μg/ml + glycyrrhizin 1 μg/ml): 0.04
*Folds enhancement in antibiotic activity (a/b) ([2]; Table 2, antibiotic 8 μg/ml, glycyrrhizin 1 μg/ml): 6.75 folds
Survival fraction of viable cells upon treatment with antibiotic alone (a) ([2]; Table 11, antibiotic 6 μg/ml): 0.500
Survival fraction of viable cells upon treatment with antibiotic glycyrrhizic acid combination (b) ([2]; Table 11, antibiotic 6 μg/ml + licorice 25 μg/ml): 0.121
*Folds enhancement in antibiotic activity (a/b) ([2]; Table 11, antibiotic 6 μg/ml, licorice 25 μg/ml): 4.10 folds
Survival fraction of viable cells upon treatment with antibiotic alone (a) ([3]; antibiotic 8 μg/ml): 0.19
Survival fraction of viable cells upon treatment with antibiotic- glycyrrhizin combination (b) [3, 7]: 0.02
*Folds enhancement in antibiotic activity (a/b) ([3]; antibiotic 8 μg/ml): 9.5 folds
Survival fraction of viable cells upon treatment with antibiotic alone (a) ([4]; antibiotic 4 μg/ml): 0.70
Survival fraction of viable cells upon treatment with antibiotic- glycyrrhizin combination (b) [4, 6]: 0.12
*Folds enhancement in antibiotic activity (a/b) ([4]; antibiotic 4 μg/ml): 7.7 folds

CC(=O)O[C@H]1C(=O)[C@@]2(C)[C@H]([C@H](OC(=O)c3ccccc3)[C@]3(O)C[C@H](OC(=O)[C@H](O)[C@@H](NC(=O)c4ccccc4)c4ccccc4)C(C)=C1C3(C)C)[C@]1(OC(C)=O)CO[C@@H]1C[C@@H]2O [Taxol, Paclitaxel (Taxol)]
Cancerous cells growth inhibition by Taxol in presence of glycyrrhizin, compared with taxol alone ([5]; Taxol 0.01 μg/ml + glycyrrhizin 1 μg/ml versus taxol 0.05 μg/ml alone): higher than even the treatment with taxol (@ 0.05 μg/ml) alone
Final titre of viable cells upon treatment with taxol-glycyrrhizin combination ([5]; taxol 0.01 μg/ml + glycyrrhizin 1 μg/ml): 0.025 × 10^6 per ml
Final titre of viable cells upon treatment with taxol alone ([5]; taxol 0.01 μg/ml): 0.05 × 10^−6 per ml
Final titre of viable cells upon treatment with taxol-glycyrrhizin combination ([5]; taxol 0.02 μg/ml + glycyrrhizin 1 μg/ml): 0.024 × 10^6 per ml
Final titre of viable cells upon treatment with taxol alone ([5]; taxol 0.02 μg/ml): 0.04 × 10^−6 per ml
Final titre of viable cells upon treatment with taxol-glycyrrhizin combination ([5]; taxol 0.05 μg/ml + glycyrrhizin 1 μg/ml): 0.021 × 10^6 per ml
Final titre of viable cells upon treatment with taxol alone ([5]; taxol 0.05 μg/ml): 0.03 × 10^−6 per ml
Enhancement of anticancerous activity (inhibiting growth and multiplication of MCF-7 cells) by glycyrrhizin ([5]; taxol with glycyrrhizin 1 μg/ml): at least 5 folds

CC1(C)[C@@H](O[C@H]2O[C@H](C(=O)O)[C@@H](O)[C@H](O)[C@H]2O[C@@H]2O[C@H](C(=O)O)[C@@H](O)[C@H](O)[C@H]2O)CC[C@]2(C)[C@H]3C(=O)C=C4[C@@H]5C[C@@](C)(C(=O)O)CC[C@]5(C)CC[C@@]4(C)[C@]3(C)CC[C@@H]12 [Glycyrrhizic acid]
zone of inhibition at 4 µg/disc (Escherichia coli): 0 mm
zone of inhibition at 4 µg/disc (Mycobacterium smegmatis): 0 mm

CC1(C)S[C@@H]2[C@H](NC(=O)[C@H](N)c3ccccc3)C(=O)N2[C@H]1C(=O)O [Ampicillin]
Survival fraction of viable cells upon treatment with antibiotic alone (a) ([3]; antibiotic 6 μg/ml): 0.38
Survival fraction of viable cells upon treatment with antibiotic- glycyrrhizin combination (b) ([3]; antibiotic 6 μg/ml + glycyrrhizin 1 μg/ml): 0.03
*Folds enhancement in antibiotic activity (a/b) ([3]; antibiotic 6 μg/ml): 12.6 folds
Survival fraction of viable cells upon treatment with antibiotic alone (a) ([3]; antibiotic 8 μg/ml): 0.013
Survival fraction of viable cells upon treatment with antibiotic- glycyrrhizin combination (b) [3, 7]: 0.006
*Folds enhancement in antibiotic activity (a/b) ([3]; antibiotic 8 μg/ml): 2.1 folds
